Consider four molecules from paper PMC3098952 (Bioorganic & medicinal chemistry letters, 2011).

SMILES strings stand for the structures.

In assay [1] the target is EcMetAP. The settings on record: read-out: Reported affinity of metal for EcMetAP; ref [30], [31]; cited from earlier work.
Assay [2] deals with AbMetAPx (Acinetobacter baumannii, UniProt A0A7U4DGZ4). In words: Activation of and metal binding to AbMetAPx by divalent metal ions. In kind it is biochemical, Acinetobacter baumannii ATCC 17978. The settings on record: Met-AMC fluorescence assay, enzyme 1 µM.
Assay [3] addresses AbMetAPy (Acinetobacter baumannii, UniProt V5VCW7). In words: Activation of and metal binding to AbMetAPy by divalent metal ions. The format is biochemical, Acinetobacter baumannii ATCC 17978. The following applies: Met-AMC fluorescence assay, enzyme 1 µM.

Turning to `[Co+2]` [Co(II)], the Kd in assay [1] is 300 nM.

For `[Fe+2]` [Fe(II)], the Kd in assay [1] is 200 nM.

Regarding `[Mn+2]` [Mn(II)], the Kd in assay [1] was 6000 nM.

In the case of `[Zn+2]` [Zn (II)], the “Activation of AbMetAPx by metal ion” value in assay [2] is on record as “no activation”. For the same molecule, the “Activation of AbMetAPy by metal ion” value in assay [3] is “no activation”.
